Two compounds from ChEMBL document CHEMBL1268867, “ATPases as drug targets: insights from heat shock proteins 70 and 90” (J Med Chem, 2010) can be followed below.

One may read the Kd as the constant that tells how readily two partners part at equilibrium.

Test [1] in a line: Binding affinity to Hsp70 nucleotide binding domain.
The target of test [2] is Heat shock cognate 71 kDa protein (Bos taurus, UniProt P19120). Kind of test: Binding affinity to bovine Hsc70 by filter binding assay.
The target in test [3] is Heat shock cognate 71 kDa protein (Homo sapiens, UniProt P11142). Kind of test: Binding affinity to human Hsc70 by isothermal calorimetry assay. A general note: Isothermal titration calorimetry measures the heat released or taken up as one component is titrated into another.
Heat shock cognate 71 kDa protein (Homo sapiens, UniProt P11142), sequence (P11142 whole entry): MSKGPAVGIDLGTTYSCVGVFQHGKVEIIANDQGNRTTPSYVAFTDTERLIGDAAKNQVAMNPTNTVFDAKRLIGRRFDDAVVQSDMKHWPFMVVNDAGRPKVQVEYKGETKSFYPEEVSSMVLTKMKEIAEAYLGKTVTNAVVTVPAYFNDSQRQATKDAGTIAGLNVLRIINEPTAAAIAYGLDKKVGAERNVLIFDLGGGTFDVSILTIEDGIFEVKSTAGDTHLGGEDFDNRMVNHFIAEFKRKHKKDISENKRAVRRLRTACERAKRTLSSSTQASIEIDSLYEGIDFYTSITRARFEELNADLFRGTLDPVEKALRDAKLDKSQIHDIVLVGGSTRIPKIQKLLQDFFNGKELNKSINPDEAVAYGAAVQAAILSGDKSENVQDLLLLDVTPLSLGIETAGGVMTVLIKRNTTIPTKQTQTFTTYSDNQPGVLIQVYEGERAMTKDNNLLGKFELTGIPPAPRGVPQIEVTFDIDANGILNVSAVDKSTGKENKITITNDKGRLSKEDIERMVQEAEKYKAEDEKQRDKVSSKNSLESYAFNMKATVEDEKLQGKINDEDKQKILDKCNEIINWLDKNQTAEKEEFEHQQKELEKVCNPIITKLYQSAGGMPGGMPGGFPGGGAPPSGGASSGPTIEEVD

Heat shock cognate 71 kDa protein (Bos taurus, UniProt P19120), sequence (P19120 whole entry): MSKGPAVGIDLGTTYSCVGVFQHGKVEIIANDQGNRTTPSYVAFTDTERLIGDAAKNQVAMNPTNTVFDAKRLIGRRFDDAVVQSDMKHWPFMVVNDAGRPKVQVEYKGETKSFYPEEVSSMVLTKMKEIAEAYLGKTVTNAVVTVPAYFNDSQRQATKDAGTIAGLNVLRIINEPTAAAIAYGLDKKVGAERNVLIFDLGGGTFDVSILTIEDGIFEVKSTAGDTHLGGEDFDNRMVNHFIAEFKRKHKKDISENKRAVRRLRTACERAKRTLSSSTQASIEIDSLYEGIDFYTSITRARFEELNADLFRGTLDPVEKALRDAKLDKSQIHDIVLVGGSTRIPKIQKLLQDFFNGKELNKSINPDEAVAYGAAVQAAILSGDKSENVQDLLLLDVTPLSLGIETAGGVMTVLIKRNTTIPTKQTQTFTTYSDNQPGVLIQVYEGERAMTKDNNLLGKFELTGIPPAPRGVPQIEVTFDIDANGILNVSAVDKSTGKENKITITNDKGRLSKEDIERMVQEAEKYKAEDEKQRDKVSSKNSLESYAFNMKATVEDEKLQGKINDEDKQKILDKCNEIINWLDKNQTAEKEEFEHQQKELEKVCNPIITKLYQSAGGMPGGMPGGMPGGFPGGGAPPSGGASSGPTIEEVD

In test [1], `N#Cc1ccc(COC[C@H]2O[C@@H](n3c(NCc4ccc(Cl)c(Cl)c4)nc4c(N)ncnc43)[C@H](O)[C@@H]2O)cc1` registered a Kd of 300 nM.
With `Nc1ncnc2c1ncn2[C@@H]1O[C@H](COP(=O)(O)OP(=O)(O)O)[C@@H](O)[C@H]1O` [ADENOSINE DIPHOSPHATE], the Kd in test [2] is 110 nM; in test [3] it was 260 nM.
